Measurements published in paper PMC8954640, “Pyranodipyran Derivatives with Tyrosyl DNA Phosphodiesterase 1 Inhibitory Activities and Fluorescent Properties from Aspergillus sp. EGF 15-0-3” (Marine Drugs, 2022).
Values belong to the molecule of their own block, whether it stands above or below them.

What was measured:
[1] = target: TDP1 (Homo sapiens, UniProt Q9NUW8); assay: TDP1 inhibition fluorescence assay (quenched fluorescent single-stranded oligonucleotide substrate); assay type: biochemical; conditions: substrate 5′-FAM-AGGATCTAAAAGACTT-BHQ-3′, repeated at least three times, read-out: TDP1 Inhibition (IC50 ± SD)
Sequence of TDP1 (Q9NUW8 whole entry): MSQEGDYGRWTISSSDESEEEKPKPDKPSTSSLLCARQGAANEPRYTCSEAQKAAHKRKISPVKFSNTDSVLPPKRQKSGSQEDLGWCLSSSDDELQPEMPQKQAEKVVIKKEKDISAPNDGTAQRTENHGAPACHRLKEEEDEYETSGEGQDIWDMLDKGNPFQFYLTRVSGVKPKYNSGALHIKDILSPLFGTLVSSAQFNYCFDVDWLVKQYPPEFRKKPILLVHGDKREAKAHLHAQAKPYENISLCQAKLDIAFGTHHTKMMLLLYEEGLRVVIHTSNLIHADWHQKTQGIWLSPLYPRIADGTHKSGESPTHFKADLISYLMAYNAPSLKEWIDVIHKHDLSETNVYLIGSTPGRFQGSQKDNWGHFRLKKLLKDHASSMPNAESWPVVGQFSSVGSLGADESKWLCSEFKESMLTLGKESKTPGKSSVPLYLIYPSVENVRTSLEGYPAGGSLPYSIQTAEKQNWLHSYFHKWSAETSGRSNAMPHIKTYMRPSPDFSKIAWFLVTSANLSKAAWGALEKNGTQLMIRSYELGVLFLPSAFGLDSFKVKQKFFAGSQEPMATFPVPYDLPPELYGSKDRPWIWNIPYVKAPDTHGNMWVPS
Source text: Considering the chiral properties of compounds will affect their activity, all of the obtained compounds, including racemates and enantiomers, were screened for TDP1 inhibition through a fluorescence assay using a quenched fluorescent single-stranded oligonucleotide (5′-FAM-AGGATCTAAAAGACTT-BHQ-3′) as substrate. […] To further investigate the mechanism of the TDP1 inhibitory activity of (+)-6 and (−)-6, a hypothetical binding mode was built using in silico docking from the X-ray crystal structure of humanized TDP1-inhibitor (PDB: 6DJD) to evaluate the mode of interactions of (+)-6 and (−)-6 with TDP1. The inhibitor was docked into the binding site. The tricyclic core of (+)-6 binds to the DNA binding groove in the proximity of the catalytically important residue His263, indicating a potential π–π stacking interaction stabilizing the inhibitor TDP1 complex. Three hypothetical hydrogen bonds were observed between the phenol hydroxy group and the amide group of residue Asn516 (2.9 Å), the 1″-hydroxy group and Ser518 residue (3.0 Å), and the pyran O atom and Ser400 residue (3.5 Å), which might contribute to TDP1 inhibition. Similarly, the polycyclic core scaffold of (−)-6 also lied along the DNA binding groove (Figure 7B), and the H-bonds (3.1 Å) between the phenol hydroxy group and the amide group of residue Asn516 was also observed. In addition, two H-bonds formed between the 2″-hydroxyl group and Ser400 residue (2.5 Å) and the pyran oxygen atom and phenol hydroxy group of Tyr204 residue (3.1 Å). […] The gold score values of (+)-6 and (−)-6 were 55.62 and 44.90, respectively. […] The mechanism of the TDP1 inhibitory activity of (±)-6 remains to be validated by biophysical assays in further research.
The TDP1 inhibition was tested through a fluorescence assay according to a previously reported method. Detailed procedures are included in the Supporting Information. […]
Briefly, TDP1 solution (20 μL/well, 0.02 μL of purified TDP1 (100 nM) in 10 mM Tris-HCl, pH 7.5, 50 mM KCl, 1 mM EDTA, 1 mM DTT) was dispensed into wells of a white 384-well plate (NEST). The tested compound solution in DMSO (5 μL) was pinned into assay plates and incubated at room tempera-ture for 30 min. During this time, the plates were read by a Flash multimode reader (Molecular Devices) at Ex485/Em510 nm to identify false-positive compound that had autofluorescence. The linear oligonucle-otide substrate 5′-FAM-AGGATCTAAAAGACTT-BHQ-3′ (25 μL, 35 nM) was dispensed into the wells to start the reaction. The whole plate was immediately read five times using a kinetic read on the Flash […]
multimode reader (Molecular Devices) (Ex485/Em510 nm). TDP1 percentage inhibition of the tested com-pound was calculated by comparing the rate of increase in fluorescence throughout time for the com-pound-treated wells to that of DMSO control wells. […]

[2] = Measurement of fluorescent properties in MeOH; assay type: physicochemical; conditions: 300 μg/mL in MeOH; for Stokes Shift / λ em: λexc = 365 nm
Description: (§1) Each probe was prepared at 300 μg/mL in MeOH. The absorption spectra were recorded from 200 to 400 nm using a Chirascan circular dichroism spectrometer ([…]). The fluorescence spectra were recorded from 385 to 750 nm with an excitation wavelength of 365 nm using Edinburgh Instruments FLS1000. For UV-irradiated probes, each probe was exposed to 365 nm UV light from a handheld UV lamp for a certain time, and the fluorescence spectra were then recorded using the same method mentioned above.

[3] = Change in fluorescence emission upon photoirradiation with 365 nm UV light; assay type: physicochemical; conditions: MeOH
Description: In addition, the fluorescent properties of 1–6 were also evaluated. […] Meanwhile, compounds 1–6 with the concentration of […] were exposed to […] UV light, and their fluorescence emission spectra were recorded (Figure 10) as a control experiment because the assay used to assess TDP1 inhibition was a fluorescence assay. […] In addition, during the TDP1 inhibition assay, the tested compound solutions were read by a Flash multimode reader at Ex485/Em510 nm to identify false-positive compounds that had autofluorescence.
as §1

SMILES: CCCCCC1OC(OC)c2c3c(cc(O)c2C1OC)C=CC(C)(C)O3 (racemic) [(±)-1, (±)-Eurotiumide G]
ε ([2]; listed as 1): 125388.61 M^–1cm^–1
λ abs ([2]; listed as 1): 221 nm
φ F ([2]; listed as 1): 0.0392
Stokes Shift ([2]; listed as 1): 224 nm
λ em ([2]; listed as 1): 445 nm
IC50 [1]: > 100 µM
change of fluorescence with time upon 365 nm irradiation (photobleaching) ([3]; listed as 1): increased substantially with time

SMILES: CCCCC[C@H]1O[C@H](OC)c2c3c(cc(O)c2[C@H]1OC)C=CC(C)(C)O3 [(+)-1, eurotiumide G]
IC50 [1]: > 100 µM

SMILES: CCCCC[C@H]1O[C@H](OC)c2c3c(cc(O)c2[C@H]1OC)[C@H](O)[C@H](O)C(C)(C)O3 [(+)-6, Aspergiletal D]
IC50 [1]: 27.8 ± 1.73 µM

SMILES: CCCCCC1OC(OC)c2c3c(cc(O)c2C1OC)C=C(OC)C(C)(C)O3 (racemic) [(±)-3, (±)-Aspergiletal A]
ε [2]: 61279.01 M^–1cm^–1
λ abs [2]: 206 nm
φ F [2]: 0.0048
Stokes Shift [2]: 266 nm
λ em [2]: 472 nm
IC50 [1]: > 100 µM
change of fluorescence with time upon 365 nm irradiation (photobleaching) [3]: significant loss of fluorescence with time

SMILES: CCCCCC1OC(OC)c2c3c(cc(O)c2C1OC)CC(OC)C(C)(C)O3 (racemic) [(±)-4, (±)-Aspergiletal B]
ε [2]: 208307.41 M^–1cm^–1
λ abs [2]: 225 nm
φ F [2]: 0.0649
Stokes Shift [2]: 203 nm
λ em [2]: 428 nm
IC50 [1]: > 100 µM
change of fluorescence with time upon 365 nm irradiation (photobleaching) [3]: inert to photobleaching

SMILES: CCCCC[C@H]1O[C@H](OC)c2c3c(cc(O)c2[C@H]1OC)C[C@H](OC)C(C)(C)O3 [(+)-4, Aspergiletal B]
IC50 [1]: > 100 µM

SMILES: CCCCC[C@H]1O[C@H](OC)c2c3c(cc(O)c2[C@@H]1OC)C=CC(C)(C)O3 [(+)-2, eurotiumide F]
IC50 [1]: > 100 µM

SMILES: CCCCCC1OC(OC)c2c3c(cc(O)c2C1OC)C=CC(C)(C)O3 (racemic) [(±)-2, (±)-Eurotiumide F]
ε ([2]; listed as 2): 70590.11 M^–1cm^–1
λ abs ([2]; listed as 2): 223 nm
φ F ([2]; listed as 2): 0.0225
Stokes Shift ([2]; listed as 2): 241 nm
λ em ([2]; listed as 2): 464 nm
IC50 [1]: 57.8 ± 2.2 µM
change of fluorescence with time upon 365 nm irradiation (photobleaching) ([3]; listed as 2): responded similarly to 1 but with a smaller magnitude improvement in fluorescence

SMILES: CCCCC[C@H]1O[C@H](OC)c2c3c(cc(O)c2[C@H]1OC)C=C(OC)C(C)(C)O3 [(+)-3, Aspergiletal A]
IC50 [1]: > 100 µM

SMILES: CCCCC[C@H]1O[C@H](OC)c2c3c(cc(O)c2[C@H]1OC)C[C@H](O)C(C)(C)O3 [(+)-5, Aspergiletal C]
IC50 [1]: > 100 µM

Further lines, with some results ahead:

IC50 [1]: 37.3 ± 3.63 µM
SMILES: CCCCC[C@@H]1O[C@@H](OC)c2c3c(cc(O)c2[C@@H]1OC)[C@@H](O)[C@@H](O)C(C)(C)O3 [(−)-6, Aspergiletal D]

IC50 [1]: > 100 µM
SMILES: CCCCC[C@@H]1O[C@@H](OC)c2c3c(cc(O)c2[C@@H]1OC)C[C@@H](O)C(C)(C)O3 [(−)-5, Aspergiletal C]

IC50 [1]: > 100 µM
SMILES: CCCCC[C@@H]1O[C@@H](OC)c2c3c(cc(O)c2[C@H]1OC)C=CC(C)(C)O3 [(−)-2, eurotiumide F]

ε [2]: 106186.60 M^–1cm^–1
λ abs [2]: 203 nm
φ F [2]: 0.0482
Stokes Shift [2]: 229 nm
λ em [2]: 432 nm
IC50 [1]: > 100 µM
SMILES: CCCCCC1OC(OC)c2c3c(cc(O)c2C1OC)CC(O)C(C)(C)O3 (racemic) [(±)-5, (±)-Aspergiletal C]
change of fluorescence with time upon 365 nm irradiation (photobleaching) [3]: significant loss of fluorescence with time

IC50 [1]: > 100 µM
SMILES: CCCCC[C@@H]1O[C@@H](OC)c2c3c(cc(O)c2[C@@H]1OC)C=C(OC)C(C)(C)O3 [(−)-3, Aspergiletal A]

IC50 [1]: > 100 µM
SMILES: CCCCCC1OC(OC)c2c3c(cc(O)c2C1OC)C=CC(C)(C)O3 (single isomer, unassigned; (-)) [(−)-1, eurotiumide G]

ε [2]: 127827.28 M^–1cm^–1
λ abs [2]: 225 nm
φ F [2]: 0.0416
Stokes Shift [2]: 199 nm
λ em [2]: 424 nm
IC50 [1]: 6.5 ± 0.73 µM
SMILES: CCCCCC1OC(OC)c2c3c(cc(O)c2C1OC)C(O)C(O)C(C)(C)O3 (racemic) [(±)-6, (±)-Aspergiletal D]
change of fluorescence with time upon 365 nm irradiation (photobleaching) [3]: significant loss of fluorescence with time

IC50 [1]: > 100 µM
SMILES: CCCCC[C@@H]1O[C@@H](OC)c2c3c(cc(O)c2[C@@H]1OC)C[C@@H](OC)C(C)(C)O3 [(−)-4, Aspergiletal B]
